ChEMBL document CHEMBL3817821, “Design and synthesis of thiamine analogues to study their binding to the ECF transporter for thiamine in bacteria” (Medchemcomm, 2016)
pKd: −log10 of the molar value.

What was measured:
[1] = Binding affinity to His8-tagged Lactococcus lactis ThiT expressed in Lactococcus lactis NZ9000 cells by isothermal […] analysis; assay type: cell-based
[2] = Binding affinity to His8-tagged Lactococcus lactis ThiT expressed in Lactococcus lactis NZ9000 cells by intrinsic fluorescence titration assay; assay type: cell-based
[3] = Binding affinity to Lactococcus lactis ThiT Gly129Ala mutant

In the case of `Cc1c(Cc2cnc(N)nc2N)csc1CCO`, the pKd [1] was 5.54.
`Cc1c(Cc2cnc(C(C)C)nc2N)csc1CCO` gave a pKd [2] of 7.87.
`Cc1c(Cc2cncnc2N)csc1CCO` gave a pKd [2] of 5.99.
Work on `CCc1ncc(Cc2csc(CCO)c2C)c(N)n1` yielded a pKd [2] of 8.30.
In the case of `Cc1c(Cc2cnc(C(F)(F)F)nc2N)csc1CCO`, the pKd [2] was 8.07.
For `Cc1ncc(Cc2csc(CCO)c2C)c(N)n1` [3-DEAZATHIAMINE], the pKd [2] was 8.37.
With `Cc1ncc(C[n+]2csc(CCO)c2C)c(N)n1` [THIAMINE] the pKd [3] was 7.47 and the pKd [2] was 9.91.
